Laboratory results reported in patent US20050244897A1, “Endothelial cells as diagnostic instrument in cardiovascular diseases” (priority 2002, published 2005).

Legend:
LDL-cholesterol = assay: Serum lipid fractions (LDL-cholesterol) in patients with stable angina before and after treatment; type: in vivo, human
Procedure: (§1) In addition, 8 patients with stable angina were prospectively treated with atorvastatin (20 mg/day, four weeks).
In all patients serum was also collected at the time of examination for a determination of the concentrations of CRP and hsCRP (turbidimetric assay, Boehringer Mannheim and Ultrasensitive N Latex CRP Monotest, Behring, respectively) as well as serum lipid-fractions (Boehringer Mannheim).
Thus, it was prospectively examined whether a short-term treatment with atorvastatin (20 mg/day, four weeks) reduces the EC-apoptosis in patients with stable CAD.

[1] = tested on: circulating apoptotic ECs; assay: Flow cytometry (FACS) of circulating apoptotic ECs in peripheral blood of patients with stable angina treated prospectively; type: in vivo, human
Procedure: as §1
The lysis of erythrocytes in 10 ml peripheral venous heparin blood was performed with the aid of a commercially available solution for lysis (Becton Dickinson, BD). The circulating ECs were then examined by means of 4-channel-FACS (Fluorescence Activated Cell Sorting)-analysis, using a suitably modified protocol according to the method of Mancuso et al. and Monestiroli et al. (Mancuso P., Burlini A., Pruneri G., Goldhirsch A., Martinelli G., Bertolini F. Blood. 2001; 97: 3658-3661; Monestiroli S., Mancuso P., Burlini A., Pruneri G., Dell'Agnola C., Gobbi A., Martinelli G., Bertolini F. Cancer Res. 2001; 61: 4341-4344) (FIG. 1). First, in the representation of the forward/sideward-scatter a regional window was defined, in order to exclude platelets and debris from the further analyses. Amongst the remaining cells, the number of the CD45^+-signals that were identified with a direct perCP-conjugated monoclonal antibody against human CD45 (BD) was quantified, in order to normalise each measured cellular population in view of the total number of the leukocytes in relation to the number of WBCs. In order to specifically detect mature ECs, only CD45^−-cells were analysed further by double staining with antibodies against the EC-specific epitope CD146 (MeI-CAM, MUC18, S-Endo-1; Shih I. M. J Pathol. 1999; 189: 4-11) (monoclonal mouse-antibody, directly FITC-conjugated; Chemicon) and against von Willebrandt-factor (vWF) (rabbit, Oncogene), followed by a PE-conjugated anti-rabbit secondary antibody. Alternatively, human KDR was detected with an anti-KDR-antibody of the mouse (Sigma), followed by a PE-conjugated anti-mouse secondary antibody in addition to vWF. CD45^−/CD146^+/vWF^+ or CD45^−/KDR^+/vWF^+-cells were defined as mature ECs. […]

CC(C)c1c(C(=O)Nc2ccccc2)c(-c2ccccc2)c(-c2ccc(F)cc2)n1CC[C@@H](O)C[C@@H](O)CC(=O)O [atorvastatin]
LDL-cholesterol (mg/dl) post (LDL-cholesterol; n=8 patients with stable angina, after 20 mg/day for four weeks, pre value 155 ± 16, mean ± SEM): 86 ± 13 mg/dL
concentration of LDL-cholesterol (LDL-cholesterol; patients with stable CAD, 20 mg/day, four weeks, p<0.02): significantly reduced
EC-apoptosis ([1]; patients with CAD, four week treatment period): profoundly reduces
number of circulating apoptotic ECs ([1]; patients with stable CAD (SA), n=8, 20 mg/day, four weeks, FIG. 3A): significantly reduced
proportion of apoptotic ECs of the total number of circulating ECs ([1]; patients with stable CAD (SA), n=8, 20 mg/day, four weeks, FIG. 3B): significantly reduced
